# Assay results reported in article PMC8522752 (Antimicrobial Agents and Chemotherapy, 2021).
# Read-outs that look alike come from different tables or passages of the source.
# Tests used:
# [1] = target: DENV NS5 protein (serotype 2) (Dengue virus type 2, UniProt P14340); test: Nucleotide analogue incorporation / RNA elongation assay; assay type: biochemical, dengue virus serotype 2; conditions: for effect on RNA synthesis after incorporation: P10/T20 primer-template, with or without GTP
# [2] = Plasma pharmacokinetics in CD-1 mice after oral AT-752; conditions: male, CD-1, mouse, in vivo, 420 mg/kg
# [3] = Plasma pharmacokinetics in cynomolgus monkeys after oral AT-752
# [4] = Plasma pharmacokinetics in Sprague Dawley rats after oral AT-752; conditions: male, Sprague Dawley, rat, in vivo, po, 300 mg/kg
# [5] = cynomolgus monkey plasma, 2 μM, 120 min, 37°C
# [6] = tested on: DENV2 D2Y98P; assay type: in vivo, AG129 mice
# [7] = monkeys, doses up to 1,000 mg/day for 14 days; S. S. Good, unpublished data
# [8] = Sprague Dawley rat plasma, 10 min of incubation
# [9] = human plasma, 2 μM, 120 min, 37°C
# [10] = in vitro; conditions: Sprague Dawley, rat, plasma
# [11] = set-up: dose or concentration left out as unconfirmed; conditions: rats, doses up to for 14 days; S. S. Good, unpublished data
# [12] = mice, single oral dose AT-281 50 mg/kg, 12 h, pooled from 3 animals
# [13] = monkeys, single oral dose of AT-752 equivalent to 55 mg/kg AT-281, 12 h
# [14] = target: human cellular DNA-dependent DNA polymerase α; conditions: read-out: estimated IC50; cited from earlier work
# [15] = target: human cellular DNA-dependent DNA polymerase γ; conditions: read-out: estimated IC50; cited from earlier work
# [16] = rats, single oral dose AT-281 300 mg/kg, 24 h
# [17] = tested on: human mitochondrial DNA-directed RNA polymerase (POLRMT); conditions: cited from earlier work
# [18] = target: human cellular DNA-dependent DNA polymerase β; conditions: read-out: estimated IC50; cited from earlier work
# [19] = tested on: DENV; set-up: method as in PMID 22807519; conditions: cited from earlier work
# [20] = Cardiomyocyte assay (CellTiter Glo); assay type: cell-based; conditions: human iPS cardiomyocytes
# [21] = male, cynomolgus, cynomolgus monkey, in vivo, po, 300 mg/kg
smiles,measurement,setting,value
"Nc1nc2c(ncn2[C@@H]2O[C@H](COP(=O)(O)OP(=O)(O)OP(=O)(O)O)C[C@H]2O)c(=O)[nH]1 [3′-dGTP, reference compound]",effect on RNA synthesis after incorporation,[1],equivalent profile
"C[C@@]1(F)[C@H](O)[C@@H](CO)O[C@H]1n1cnc2c(=O)[nH]c(N)nc21 [AT-273, 2′-fluoro-2′-C-methyl guanosine]",AUC(0-t),[2],18.8 ± 6 µM·h
same,Cmax,[2],2.3 ± 0.7 µM
same,AUC(0-t),[3]; [21],7.8 ± 2.4 µM·h
same,Cmax,[3]; [21],0.8 ± 0.2 µM
same,plasma AT-273 concentration,"CD-1, mouse, in vivo",1.35 ± 0.86 nmol/mL
same,plasma AT-273 concentration,"mice, AT-281 1,000 mg/kg loading then 500 mg/kg BID 3 days, 12 h after the first 500-mg/kg dose",0.67 ± 0.12 nmol/mL
same,AUC(0-t),[4],22.9 µM·h
same,Cmax,[4],1.3 ± 0.3 µM
same,Tmax,[4],8 h
CNc1nc(N)nc2c1ncn2[C@@H]1O[C@H](CO[P@](=O)(O)N[C@@H](C)C(=O)O)[C@@H](O)[C@@]1(C)F [AT-551],AUC(0-t),[2],58.7 ± 13.3 µM·h
same,Cmax,[2],45.1 ± 12 µM
same,Tmax,[2],0.5 h
same,AUC(0-t),[3]; [21],9.7 ± 2.2 µM·h
same,Cmax,[3]; [21],2 ± 0.8 µM
same,Tmax,[3]; [21],2 h
same,AUC(0-t),[4],56.5 µM·h
same,Cmax,[4],16.5 ± 10.8 µM
CNc1nc(N)nc2c1ncn2[C@@H]1O[C@H](CO[P@](=O)(N[C@@H](C)C(=O)OC(C)C)Oc2ccccc2)[C@@H](O)[C@@]1(C)F [AT-752],% of starting concentration remaining,[5],98.2%
same,"viremia vs vehicle, day 6 pi","[6]; AG129 mice, oral 1,000 mg/kg loading 4 h before challenge then 500 mg/kg BID 7 days, P = 0.000014",significantly lower
same,"viremia vs control, day 4 pi",[6]; same regimen,did not demonstrate a difference in viremia
same,survival vs vehicle (Kaplan-Meier),"[6]; same regimen, P = 0.0004, Mantel-Cox log rank test",significantly improved the survival
same,health scores vs vehicle,"[6]; same regimen, day 4 to day 9 pi, P < 0.001",significantly better health scores
same,weight loss vs vehicle,"[6]; same regimen, days 5, 7 and 8 pi, P < 0.001",significantly reduced weight loss
same,spleen viral load vs control by day 7 pi,"[6]; same regimen, reduced compared to control",not statistically different
same,viremia by day 8 pi,"[6]; same regimen, virus still measurable in all surviving controls, P = 0.0045",cleared in all treated animals
same,safety findings,[7],no safety concerns
same,unusual or adverse clinical signs after dosing,"[3]; monkeys, oral AT-752 300 mg/kg or 60 mg/kg, observed before and after dosing and at blood collections",no such signs noted
same,drug remaining at first time point,[8],no drug remaining
same,% of starting concentration remaining,[9],93.5%
same,half-life,[10],< 3 min
same,safety findings,[11],no safety concerns
C[C@@]1(F)[C@H](O)[C@@H](COP(=O)(O)OP(=O)(O)OP(=O)(O)O)O[C@H]1n1cnc2c(=O)[nH]c(N)nc21 [AT-9010],AT-9010 concentration in PBMCs,[12],0.092 pmol/10^6 cells
same,AT-9010 concentration in PBMCs,[13],0.070 ± 0.046 pmol/10^6 cells
same,IC50,[14],> 100 µM
same,IC50,[15],> 100 µM
same,effect on RNA synthesis after incorporation,[1],immediate chain termination of RNA synthesis
same,discrimination factor (preference for GTP > AT-9010),"[1]; all four NTPs present, band product intensities at +5 and +7 positions",12.6 ± 4.3
same,AT-9010 concentration in PBMCs,[16],0.439 ± 0.218 pmol/10^6 cells
same,effect on mitochondrial integrity / inhibition of POLRMT,[17],not likely to affect mitochondrial integrity or inhibit human mitochondrial DNA-directed RNA polymerase
same,IC50,[18],> 100 µM
same,AT-9010 concentration in PBMCs,"mice, 500 mg/kg AT-281 then 250 mg/kg 4 h later, 4 h after the second dose",0.297 pmol/10^6 cells
CC(C)C(=O)OC[C@@]1(N=[N+]=[N-])O[C@@H](n2ccc(N)nc2=O)[C@H](OC(=O)C(C)C)[C@@H]1OC(=O)C(C)C [balapiravir],viremia in patients infected with DENV,[19],failed to reduce viremia
same,"antiviral response, cytokine profile and time to fever clearance vs placebo",[19]; tested clinically,no differences between compound and placebo treatment were observed
"COc1cc2nc(N3CCN(C(=O)C4COc5ccccc5O4)CC3)nc(N)c2cc1OC (stereo not drawn) [doxazosin, reference compound]",CC50 at 3 days,[20],7 µM
